Test results published in US20060183773A1, “Uses of methylphenidate derivatives” (priority 2005, published 2006).

Experiments:
NFκB = assay: Activated NFκB in VEGF-treated HUVECs, TransAM assay; assay type: cell-based, human; conditions: for Mean OD 450 nm (NFκB): control 0.070, VEGF only 0.111
Description: Passage 5 HUVECs, human source lot number 8750 (obtained from ATCC), were grown to confluence in 25 cm^2 flasks in EGM-2 medium. The following additives were added to the flasks (total volume of 5 ml/flask) in EGM-2 medium containing 2% FCS, GA1000 (gentamycin), heparin and ascorbic acid (all from Cambrex): 1 μg/ml of the compound of formula II (Cpd II); 5 μg/ml Cpd II; 15 μg/ml of Cpd II; 15 μg/ml methylphenidate (MP); or 10 μM LY 294002. The flasks were incubated overnight at 37° C., 5% CO2 After this incubation, vascular endothelial growth factor (VEGF) (obtained from Sigma) was added to give a final concentration 10 ng/ml, and the flasks were incubated for an additional 30 minutes.
Then, the amount of NFκB was determined using a TransAM™ NFκB p65/NFκB p50 Transcription Factor Assay Kit and a Nuclear Extract Kit from Active Motif North America, Carlsbad, Calif., according to the manufacturer's instructions. Briefly, a nuclear extract of the cells was prepared using the Nuclear Extract Kit. Then, the nuclear extract was added to the wells of the 96-well plate of the TransAM™ kit. Oligonucleotide containing an NFκB consensus binding site was immobilized in the wells, and the activated NFκB contained in the nuclear extract was bound to the oligonucleotide. Then, an antibody directed against the NFκB p65 or p50 subunit was added, and the NFκB complex bound to the oligonucleotide was detected. A secondary antibody conjugated to horseradish peroxidase (HRP) was next added to provide a colorimetric readout that was quantified by spectrophotometry (measurement at 450 nm).

IL-8 [1] = assay: IL-8 release by TNFα-stimulated HUVECs, ELISA; assay type: cell-based, human; conditions: for Mean IL-8: 18 hours, TNFα + water 35572; for IL-8 release stimulated by TNFα (in words): HUVECs, Cpd II 1-30 μg/ml, MP 15 μg/ml, Dex and LY 294002 10 μM
Description: Passage 4 HUVECs, human source lot number 8710 (obtained from ATCC), were put into the wells of a 24-well tissue culture plate at 5,000 cells/well in EGM-2 medium (obtained from Cambrex) and cultured for 72 hours at 37° C. and 5% CO2. […] After incubation for 1 hour at 37° C. and 5% CO2, TNFα (obtained from Pierce) was added to give a final concentration of 10 ng/ml, and the cells were incubated for an additional 18 hours at 37° C. and 5% CO2. After this incubation, the supernatants were collected, and the amount of IL-8 in the supernatants determined by ELISA as described in Example 4.

[2] = test system: MC/9 murine fibroblast cell line; assay: MC/9 cell proliferation, Promega cell titer assay; assay type: cell-based; conditions: 72 hours
Description: Cells of the MC/9 murine […] cell line (obtained from ATCC, catalog no. CRL-8305) were placed into the wells of a 96-well tissue culture plate at 25,000 cells/well. The culture medium was Delbecco's Modified Eagle's Medium (DMEM) (obtained from Cambrex) containing 10% fetal calf serum (FCS) (obtained from ATCC). Nil control wells contained no additives. The remaining wells contained either 25 ng/ml murine nerve growth factor (NGF) (obtained from Upstate Biotechnology, Lake Placid, NY) or 25 ng/ml NGF and 5% TSTIM (a culture supplement prepared from rats and containing concanavalin A which was obtained from BD Biosciences). […] After 72 hours of culture at 37° C. and 5% CO2, cell proliferation was evaluated by the Promega cell titer assay as described in Example 1.

MEK1 = assay: Custom AntibodyArray, TRiPS cells: MEK1; assay type: cell-based, human; conditions: 15 μg/ml, 30 minutes
Description: Day 18 TRiPS cells, 1×10^6, were incubated for 30 minutes at 37° C., either with nothing added (“Nil”), with 1 μl CD3/CD28 Dynabeads (Dynal, Oslo, Norway) (“CD3/CD28 beads”) per 100,000 cells, or with CD3/CD28 beads and 15 μg/ml of the compound of formula II (Cpd II). After the incubation, the cells were lysed in Cell-Lytic Mammalian Cell Extraction Reagent (Sigma). After centrifugation to pellet cellular debris, the supernatants (cell extracts) were obtained.
The cell extracts (supernatants) were then analyzed using a Custom AntibodyArray™ manufactured by Hypromatrix Inc., Worcester, Mass., following the manufacturer's instructions. The Custom AntibodyArray™ is a nylon membrane blotted with antibodies to the proteins listed below. Briefly, the cell extracts were incubated with duplicate Custom AntibodyArray™'s for 2 hours at room temperature with slow shaking, followed by three washes with Tris buffer (150 mM NaCl, 25 mM Tris, 0.05% Tween-20, pH 7.5). HRP-labeled antibodies specific for phosphorylated-tyrosine, phosphorylated-serine and phosphorylated-threonine in Tris buffer were added, and the arrays incubated for 2 hours. After three more washes with Tris buffer, a peroxidase-reactive luminescent substrate was added. The arrays were visualized by exposure to X-ray film. Densitometry of the X-ray films was measured by scanning and computer analysis.

IL-8 [3] = assay: IL-8 release by PHA-stimulated PBL, ELISA; assay type: cell-based, human; conditions: PBL donor GR-192; 2 μg/ml PHA, 96 h; Cpd II 15 μg/ml, Dex 10 μM; FIG. 8
Description: Whole blood was drawn from GR-192, a normal human volunteer, and processed as described in Example 1 to give heat-inactivated serum and PBL. […] After this incubation, PHA was added to give a final concentration of 2 μg/ml, and the cells were incubated for an additional 96 hours at 37° C., 5% CO2. All cultures were performed in triplicate. Cells were then removed by centrifugation at 1000 rpm for 10 minutes, and the culture medium collected.
Release of IL-8 into the culture medium was measured by ELISA. To perform the ELISA, matched pairs of antibodies against human IL-8 were purchased from Pierce Biotechnology and Biosource, respectively. ELISA strip well plates were coated with 2 μg/ml of antibody to IL-8 (in phosphate-buffered saline (PBS)) overnight at room temperature. The plates were then blocked using a 4% BSA solution in PBS for one hour, followed by the addition of 50 μl of experimental culture medium per well in duplicate. The plates were incubated at room temperature for one hour and then washed using 50 mM Tris pH 8.0 with 0.1% Tween 20. Then, solutions of 100 ng/ml biotinylated second antibody to IL-8 were made in blocking buffer, and 100 μl were added per well. The plates were incubated for 1 hour and washed again. […] OD was determined using microplate reader with a 450 nm filter.

Row | SMILES | Mean OD 450 nm (NFκB) (NFκB; VEGF 10 ng/ml + 15 μg/ml) | Mean IL-8 (IL-8 [1]; 10 ng/ml TNFα + 15 μg/ml) | IL-8 release stimulated by TNFα (in words) (IL-8 [1]) | Mean OD 530 nm ([2]; MC/9, NGF 25 ng/ml + 1 μg/ml, NGF + water 0.101) | Mean OD 530 nm ([2]; MC/9, NGF 25 ng/ml + 5 μg/ml, NGF + water 0.101) | Mean OD 530 nm ([2]; MC/9, NGF 25 ng/ml + 15 μg/ml, NGF + water 0.101) | Mean OD 530 nm ([2]; MC/9, NGF + TSTIM + 1 μg/ml, NGF + TSTIM + water 0.365) | Mean OD 530 nm ([2]; MC/9, NGF + TSTIM + 5 μg/ml, NGF + TSTIM + water 0.365) | Mean OD 530 nm ([2]; MC/9, NGF + TSTIM + 15 μg/ml, NGF + TSTIM + water 0.365) | Mean OD 450 nm (NFκB) (NFκB; VEGF 10 ng/ml + 1 μg/ml) | Mean OD 450 nm (NFκB) (NFκB; VEGF 10 ng/ml + 5 μg/ml) | amount of activated NFκB (in words) (NFκB; VEGF, 15 μg/ml and 5 μg/ml) | Effect of Cpd II on the protein in CD3/CD28 stimulated TRiPS cells (MEK1) | Mean IL-8 (IL-8 [1]; 10 ng/ml TNFα + 1 μg/ml) | Mean IL-8 (IL-8 [1]; 10 ng/ml TNFα + 5 μg/ml) | Mean IL-8 (IL-8 [1]; 10 ng/ml TNFα + 10 μg/ml) | Mean IL-8 (IL-8 [1]; 10 ng/ml TNFα + 30 μg/ml) | IL-8 release induced by PHA (IL-8 [3])
1 | COC(=O)C(c1ccccc1)C1CCCCN1 (stereo not drawn) [methylphenidate] | 0.093 ± 0.011 | 30183 ± 3448.01 pg/mL | slightly decreased IL-8 release | – | – | – | – | – | – | – | – | – | – | – | – | – | – | –
2 | COC(=O)C(c1ccc(-c2ccccc2)cc1)C1CCCCN1 (stereo not drawn) [Cpd II] | 0.060 ± 0.008 | 20817 ± 674.63 pg/mL | decreased IL-8 release stimulated by TNFα in a dose-dependent manner | 0.117 ± 0.015 | 0.108 ± 0.012 | 0.049 ± 0.016 | 0.428 ± 0.027 | 0.373 ± 0.016 | 0.326 ± 0.024 | 0.097 ± 0.013 | 0.065 ± 0.010 | reduced the amount of activated NFκB back to basal levels | Decreased level to below basal levels (Nil control) | 53657 ± 3935.18 pg/mL | 34482 ± 2127.22 pg/mL | 22050 ± 727.27 pg/mL | 4829.8 ± 214.13 pg/mL | significantly inhibited IL-8 release induced by PHA
